Results as given in patent US7868176B2, “Salts of N-(4-fluorobenzyl)-N-(1-methylpiperidin-4-y1)-N′-(4-(2-methylpropyloxy)phenylmethyl)carbamide and their preparation” (ACADIA Pharmaceuticals, Inc., priority 2004, dated 2011).
≈ marks a conversion by molar mass, not a printed value. Structures can show the parent of a compound that is named as a salt.

Experiments:
[1] = Approximate solubility in water; format: physicochemical
Procedure: The limit value of completely dissolved amount was determined. Determination of solubilities below 20 mg/l occurred with stirring suspensions in water, filtering off the excess, and measuring of the amount of substance in the filtrate.

[2] = Storage stability of the crystalline salt (HPLC area, Raman, appearance); format: physicochemical; conditions: for Storage stability (general statement): crystalline forms disclosed; for HPLC area reference value: reference value against which the HPLC area after 1 week at 60° C./75% r.h. is compared
Procedure: FT-Raman Spectroscopy: Bruker RFS100. Nd:YAG 1064 nm excitation, 100 mW laser power, Ge-detector, 64 scans, range 25-3500 cm^−1, […].
HPLC: HPLC measurement were carried out with a HP LC1090M, Column Symmetry C18, 3.0·150 mm.

[3] = stored 1 week at 60° C. and about 75% r.h. in an open container
[4] = approximate, double distilled water added stepwise to 5 mg substance, sonification
[5] = storage for 1 week at 100° C. in a closed ampoule
[6] = stored 1 week at 60° C. and about 75% r.h. in a closed container

SMILES: CC(C)COc1ccc(CNC(=O)N(Cc2ccc(F)cc2)C2CCN(C)CC2)cc1 [Example 2, N-(4-fluorobenzyl)-N-(1-methylpiperidin-4-yl)-N′-(4-(2-methylpropyloxy)phenylmethyl)carbamide citrate]
- Solubility in aqueous systems (general statement) ([1]; aqueous systems): very soluble
- solubility at 2 min ([1]; thermodynamic from solid, approximate, double distilled water added stepwise to 5 mg substance, sonification): ~14 mg/mL
- Storage stability (general statement) [2]: good storage stability
- HPLC area reference value [2]: 99.9%
- HPLC area after storage [2, 3]: 99.4%
- State of crystalline powder after storage [2, 3]: substantially unchanged

SMILES: CC(C)COc1ccc(CNC(=O)N(Cc2ccc(F)cc2)C2CCN(C)CC2)cc1.O=C(O)/C=C/C(=O)O [Example 3, N-(4-fluorobenzyl)-N-(1-methylpiperidin-4-yl)-N′-(4-(2-methylpropyloxy)phenylmethyl)carbamide fumarate]
- Solubility in water [1, 4]: > 500 mg/mL
- HPLC area reference value [2]: 99.4%
- Changes on storage detected with Raman spectroscopy ([2]; storage at 75% r.h. in an open container): changes of the substance after 3 days
- HPLC area after storage [2, 3]: 96.7%
- State of crystalline powder after storage [2, 3]: substantially unchanged

SMILES: CC(C)COc1ccc(CNC(=O)N(Cc2ccc(F)cc2)C2CCN(C)CC2)cc1 [Example 4, N-(4-fluorobenzyl)-N-(1-methylpiperidin-4-yl)-N′-(4-(2-methylpropyloxy)phenylmethyl)carbamide maleate]
- Solubility in water [1, 4]: > 500 mg/mL

SMILES: CC(C)COc1ccc(CNC(=O)N(Cc2ccc(F)cc2)C2CCN(C)CC2)cc1 [Example 5, N-(4-fluorobenzyl)-N-(1-methylpiperidin-4-yl)-N′-(4-(2-methylpropyloxy)phenylmethyl)carbamide malate]
- Solubility in water [1, 4]: > 500 mg/mL

SMILES: CC(C)COc1ccc(CNC(=O)N(Cc2ccc(F)cc2)C2CCN(C)CC2)cc1 [Example 6, N-(4-fluorobenzyl)-N-(1-methylpiperidin-4-yl)-N′-(4-(2-methylpropyloxy)phenylmethyl)carbamide phosphate]
- Solubility in water [1, 4]: > 250 mg/mL

SMILES: CC(C)COc1ccc(CNC(=O)N(Cc2ccc(F)cc2)C2CCN(C)CC2)cc1 [Example 7, N-(4-fluorobenzyl)-N-(1-methylpiperidin-4-yl)-N′-(4-(2-methylpropyloxy)phenylmethyl)carbamide succinate]
- Solubility in water [1, 4]: > 500 mg/mL

SMILES: CC(C)COc1ccc(CNC(=O)N(Cc2ccc(F)cc2)C2CCN(C)CC2)cc1 [Example 9, N-(4-fluorobenzyl)-N-(1-methylpiperidin-4-yl)-N′-(4-(2-methylpropyloxy)phenylmethyl)carbamide edisylate]
- Solubility in water [1, 4]: 4 mg/mL (≈ 9.36 mM)
- Storage stability (general statement) [2]: good storage stability
- HPLC area reference value [2]: 96.8%
- HPLC area after storage [2, 5]: 97.4%
- State of crystalline product after storage [2, 5]: does not decompose
- HPLC area after storage [2, 6]: 97.4%
- State of crystalline powder after storage [2, 6]: remains a white powder
